# From PMC3537892 (Clinical cancer research : an official journal of the …, 2012)
# Test system: RENCA renal cancer cells grafted in the renal capsule
# Assay: Orthotopic RENCA renal cancer allograft
# Assay type: in vivo, BALB/c mice
# Details: three i.v. injections in fourth week after grafting; p < 0.003
structure (smiles),measurement,value
"CC(=O)O[C@H]1C(=O)[C@@]2(C)[C@H]([C@H](OC(=O)c3ccccc3)[C@]3(O)C[C@H](OC(=O)[C@H](O)[C@@H](NC(=O)c4ccccc4)c4ccccc4)C(C)=C1C3(C)C)[C@]1(OC(C)=O)CO[C@@H]1C[C@@H]2O [PTX, paclitaxel]",tumor volume compared to vehicle control,significantly decreased tumor volume
